According to US20220089578A1, “COMPOUNDS AS GLP-1R AGONISTS” (Terns Pharmaceuticals, Inc., priority 2020, published 2022):

biological target: human GLP-1R (Homo sapiens, UniProt P43220); assay: GLP-1R Cell Assay 1: cAMP Hunter CHO-K1 GLP1R Gs cell line, HitHunter cAMP assay; assay type: cell-based; details: Table 2; cAMP Hunter CHO-K1 GLP1R Gs cells; percent activity normalized to Exendin-4
In short: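 CHO-K1 cells overexpressing wild-type human GLP-1R treated with 3-fold serially diluted compounds for 30-60 min at 37 °C. cAMP measured by EFC competitive luminescent immunoassay; activity normalised to Exendin-4, duplicate runs, EC50 by nonlinear regression.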

Chain of human GLP-1R (P43220 24-463): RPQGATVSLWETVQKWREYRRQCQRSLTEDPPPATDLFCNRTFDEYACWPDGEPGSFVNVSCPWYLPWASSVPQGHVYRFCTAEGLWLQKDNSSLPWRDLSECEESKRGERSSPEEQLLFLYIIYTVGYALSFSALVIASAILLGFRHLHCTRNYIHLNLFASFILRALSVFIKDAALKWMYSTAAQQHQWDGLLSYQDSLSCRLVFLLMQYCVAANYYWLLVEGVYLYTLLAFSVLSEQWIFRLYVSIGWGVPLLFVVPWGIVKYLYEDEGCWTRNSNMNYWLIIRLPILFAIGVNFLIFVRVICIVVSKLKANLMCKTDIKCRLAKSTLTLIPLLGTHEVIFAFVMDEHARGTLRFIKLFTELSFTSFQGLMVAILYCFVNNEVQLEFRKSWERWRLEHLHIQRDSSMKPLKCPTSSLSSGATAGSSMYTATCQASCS

| Compound | EC50 |
| --- | --- |
| N#Cc1ccc(COc2ccn(C3CCN(Cc4nc5ccc(C(=O)O)cc5n4C[C@@H]4CCO4)CC3)n2)c(F)c1 [Compound 92, (S)-2-((4-(3-((4-cyano-2-fluorobenzyl)oxy)-1H-pyrazol-1-yl)piperidin-1-yl)methyl)-1-(oxetan-2-ylmethyl)-1H-benzo[d]imidazole-6-carboxylic acid] | 8.35 nM |
| O=C(O)c1ccc2nc3n(c2c1)CCOC[C@H]3N1CCC(c2cccc(OCc3ccccc3)n2)CC1 [Compound 93, (S)-5-(4-(6-(benzyloxy)pyridin-2-yl)piperidin-1-yl)-1,2,4,5-tetrahydrobenzo[4,5]imidazo [1,2-d][1,4]oxazepine-9-carboxylic acid] | > 500 nM |
| O=C(O)c1ccc2nc3n(c2c1)CCOC[C@@H]3N1CCC(c2cccc(OCc3ccccc3)n2)CC1 [Compound 94, (R)-5-(4-(6-(benzyloxy)pyridin-2-yl)piperidin-1-yl)-1,2,4,5-tetrahydrobenzo[4,5]imidazo[1,2-d][1,4]oxazepine-9-carboxylic acid] | 152 nM |
| C[C@@H]1COC[C@H](N2CCC(c3cccc(OCc4ccc(C#N)cc4F)n3)CC2)c2nc3ccc(C(=O)O)cc3n21 [Compound 95, (1R,5R)-5-(4-(6-((4-cyano-2-fluorobenzyl)oxy)pyridin-2-yl)piperidin-1-yl)-1-methyl-1,2,4,5-tetrahydrobenzo[4,5]imidazo[1,2-d][1,4]oxazepine-9-carboxylic acid] | 46.6 nM |
| C[C@@H]1COC[C@@H](N2CCC(c3cccc(OCc4ccc(C#N)cc4F)n3)CC2)c2nc3ccc(C(=O)O)cc3n21 [Compound 96, (1R,5S)-5-(4-(6-((4-cyano-2-fluorobenzyl)oxy)pyridin-2-yl)piperidin-1-yl)-1-methyl-1,2,4,5-tetrahydrobenzo[4,5]imidazo[1,2-d][1,4]oxazepine-9-carboxylic acid] | 78.1 nM |
| O=C(O)c1ccc2nc(CN3CC[C@]4(c5cccc(OCc6ccccc6)n5)C[C@@H]4C3)n(C[C@@H]3CCO3)c2c1 [Compound 97, 2-(((1S,6R)-6-(6-(benzyloxy)pyridin-2-yl)-3-azabicyclo[4.1.0]heptan-3-yl)methyl)-1-(((S)-oxetan-2-yl)methyl)-1H-benzo[d]imidazole-6-carboxylic acid] | 18.6 nM |
| O=C(O)c1ccc2nc(CN3CC[C@]4(c5cccc(OCc6ccc(Cl)cc6F)n5)C[C@@H]4C3)n(C[C@@H]3CCO3)c2c1 [Compound 98, 2-(((1S,6R)-6-(6-((4-chloro-2-fluorobenzyl)oxy)pyridin-2-yl)-3-azabicyclo[4.1.0]heptan-3-yl)methyl)-1-(((S)-oxetan-2-yl)methyl)-1H-benzo[d]imidazole-6-carboxylic acid] | 0.556 nM |
| O=C(O)c1ccc2nc(CN3CCC(n4ccc(OCCc5ccccc5)n4)CC3)n(C[C@@H]3CCO3)c2c1 [Compound 99] | 2070 nM |
| N#Cc1ccc(Cn2cnc3ccc(N4CCN(Cc5nc6ccc(C(=O)O)cc6n5C[C@@H]5CCO5)CC4)nc32)c(F)c1 [Compound 100, (S)-2-((4-(3-(4-cyano-2-fluorobenzyl)-3H-imidazo[4,5-b]pyridin-5-yl)piperazin-1-yl)methyl)-1-(oxetan-2-ylmethyl)-1H-benzo[d]imidazole-6-carboxylic acid] | 246 nM |
| O=C(O)c1ccc2nc(CN3CCC(n4ccc(OCc5nc6ccccc6s5)n4)CC3)n(C[C@@H]3CCO3)c2c1 [Compound 101, (S)-2-((4-(3-(benzo[d]thiazol-2-ylmethoxy)-1H-pyrazol-1-yl)piperidin-1-yl)methyl)-1-(oxetan-2-ylmethyl)-1H-benzo[d]imidazole-6-carboxylic acid] | 28.7 nM |
| N#Cc1ccc(COc2nn(C3CCN(Cc4nc5ccc(C(=O)O)cc5n4C[C@@H]4CCO4)CC3)cc2Cl)c(F)c1 [Compound 102, (S)-2-((4-(4-chloro-3-((4-cyano-2-fluorobenzyl)oxy)-1H-pyrazol-1-yl)piperidin-1-yl)methyl)-1-(oxetan-2-ylmethyl)-1H-benzo[d]imidazole-6-carboxylic acid] | 3.94 nM |
| O=C(O)c1ccc2nc(CN3CCN(c4cccc(OCc5ccc6ocnc6c5)n4)CC3)n(C[C@@H]3CCO3)c2c1 [Compound 103, (S)-2-((4-(6-(benzo[d]oxazol-5-ylmethoxy)pyridin-2-yl)piperazin-1-yl)methyl)-1-(oxetan-2-ylmethyl)-1H-benzo[d]imidazole-6-carboxylic acid] | 5.54 nM |
| N#Cc1ccc2c(c1)CCN(c1ccn(C3CCN(Cc4nc5ccc(C(=O)O)cc5n4C[C@@H]4CCO4)CC3)n1)C2 [Compound 105, (S)-2-((4-(3-(6-cyano-3,4-dihydroisoquinolin-2(1H)-yl)-1H-pyrazol-1-yl)piperidin-1-yl)methyl)-1-(oxetan-2-ylmethyl)-1H-benzo[d]imidazole-6-carboxylic acid] | > 500 nM |
| N#Cc1ccc2c(c1)CCN(c1ccn(C3CCN(Cc4nc5ccc(C(=O)O)cc5n4C[C@@H]4CCO4)CC3)n1)CC2 [Compound 106, (S)-2-((4-(3-(7-cyano-1,2,4,5-tetrahydro-3H-benzo[d]azepin-3-yl)-1H-pyrazol-1-yl)piperidin-1-yl)methyl)-1-(oxetan-2-ylmethyl)-1H-benzo[d]imidazole-6-carboxylic acid] | > 500 nM |
| O=C(O)c1ccc2nc(CN3CCN(c4cccc(OCc5nc6c(F)cccc6s5)n4)CC3)n(C[C@@H]3CCO3)c2c1 [Compound 107, (S)-2-((4-(6-((4-fluorobenzo[d]thiazol-2-yl)methoxy)pyridin-2-yl)piperazin-1-yl)methyl)-1-(oxetan-2-ylmethyl)-1H-benzo[d]imidazole-6-carboxylic acid] | 1.07 nM |

Other lines, results leading:

| EC50 | Compound |
| --- | --- |
| 4.15 nM | N#Cc1ccc(COc2nn(C3CCN(Cc4nc5ccc(C(=O)O)cc5n4C[C@@H]4CCO4)CC3)cc2F)c(F)c1 [Compound 108, (S)-2-((4-(3-((4-cyano-2-fluorobenzyl)oxy)-4-fluoro-1H-pyrazol-1-yl)piperidin-1-yl)methyl)-1-(oxetan-2-ylmethyl)-1H-benzo[d]imidazole-6-carboxylic acid] |
| 3.65 nM | N#Cc1cccc2c1CN(c1cccc(N3CCN(Cc4nc5ccc(C(=O)O)cc5n4C[C@@H]4CCO4)CC3)n1)CC2 [Compound 109, (S)-2-((4-(6-(8-cyano-3,4-dihydroisoquinolin-2(1H)-yl)pyridin-2-yl)piperazin-1-yl)methyl)-1-(oxetan-2-ylmethyl)-1H-benzo[d]imidazole-6-carboxylic acid] |
| 0.213 nM | N#Cc1ccc2nc(COc3cccc(N4CCN(Cc5nc6ccc(C(=O)O)cc6n5C[C@@H]5CCO5)CC4)n3)sc2c1 [Compound 110, (S)-2-((4-(6-((6-cyanobenzo[d]thiazol-2-yl)methoxy)pyridin-2-yl)piperazin-1-yl)methyl)-1-(oxetan-2-ylmethyl)-1H-benzo[d]imidazole-6-carboxylic acid] |
| 36.8 nM | N#Cc1ccc(COc2nn(C3CCN(Cc4nc5ccc(C(=O)O)cc5n4C[C@@H]4CCO4)CC3)cc2C#N)c(F)c1 [Compound 111, (S)-2-((4-(4-cyano-3-((4-cyano-2-fluorobenzyl)oxy)-1H-pyrazol-1-yl)piperidin-1-yl)methyl)-1-(oxetan-2-ylmethyl)-1H-benzo[d]imidazole-6-carboxylic acid] |
| 1.24 nM | O=C(O)c1ccc2nc(CN3CCN(c4cccc(OCc5nc6cc(Cl)ccc6s5)n4)CC3)n(C[C@@H]3CCO3)c2c1 [Compound 112, (S)-2-((4-(6-((5-chlorobenzo[d]thiazol-2-yl)methoxy)pyridin-2-yl)piperazin-1-yl)methyl)-1-(oxetan-2-ylmethyl)-1H-benzo[d]imidazole-6-carboxylic acid] |
| 0.176 nM | O=C(O)c1ccc2nc(CN3CCN(c4cccc(OCc5nc6ccc(Cl)cc6s5)n4)CC3)n(C[C@@H]3CCO3)c2c1 [Compound 113, (S)-2-((4-(6-((6-chlorobenzo[d]thiazol-2-yl)methoxy)pyridin-2-yl)piperazin-1-yl)methyl)-1-(oxetan-2-ylmethyl)-1H-benzo[d]imidazole-6-carboxylic acid] |
| 5.11 nM | Cc1cn(C2CCN(Cc3nc4ccc(C(=O)O)cc4n3C[C@@H]3CCO3)CC2)nc1OCc1ccc(C#N)cc1F [Compound 114] |
| 8 nM | C[C@H](Oc1cccc(N2CCN(Cc3nc4ccc(C(=O)O)cc4n3C[C@@H]3CCO3)CC2)n1)c1nc2ccccc2s1 [Compound 115, 2-((4-(6-((S)-1-(benzo[d]thiazol-2-yl)ethoxy)pyridin-2-yl)piperazin-1-yl)methyl)-1-(((S)-oxetan-2-yl)methyl)-1H-benzo[d]imidazole-6-carboxylic acid] |
| 4.27 nM | C[C@@H](Oc1cccc(N2CCN(Cc3nc4ccc(C(=O)O)cc4n3C[C@@H]3CCO3)CC2)n1)c1nc2ccccc2s1 [Compound 116, 2-((4-(6-((R)-1-(benzo[d]thiazol-2-yl)ethoxy)pyridin-2-yl)piperazin-1-yl)methyl)-1-(((S)-oxetan-2-yl)methyl)-1H-benzo[d]imidazole-6-carboxylic acid] |
| 5.93 nM | N#Cc1ccc(COc2nn(C3CCN(Cc4nc5ccc(C(=O)O)cc5n4C[C@@H]4CCO4)CC3)cc2C(F)(F)F)c(F)c1 [Compound 117, (S)-2-((4-(3-((4-cyano-2-fluorobenzyl)oxy)-4-(trifluoromethyl)-1H-pyrazol-1-yl)piperidin-1-yl)methyl)-1-(oxetan-2-ylmethyl)-1H-benzo[d]imidazole-6-carboxylic acid] |
| 185 nM | CC(C)c1cn(C2CCN(Cc3nc4ccc(C(=O)O)cc4n3C[C@@H]3CCO3)CC2)nc1OCc1ccc(C#N)cc1F [Compound 118, (S)-2-((4-(3-((4-cyano-2-fluorobenzyl)oxy)-4-isopropyl-1H-pyrazol-1-yl)piperidin-1-yl)methyl)-1-(oxetan-2-ylmethyl)-1H-benzo[d]imidazole-6-carboxylic acid] |
| 0.552 nM | O=C(O)c1ccc2nc(CN3CCN(c4cccc(OCc5nc6cc(F)ccc6s5)n4)CC3)n(C[C@@H]3CCO3)c2c1 [Compound 119, (S)-2-((4-(6-((5-fluorobenzo[d]thiazol-2-yl)methoxy)pyridin-2-yl)piperazin-1-yl)methyl)-1-(oxetan-2-ylmethyl)-1H-benzo[d]imidazole-6-carboxylic acid] |
